Laboratory results published in US20240051985A1, “METTL3 MODULATORS” (ACCENT THERAPEUTICS, INC., priority 2020, published 2024).
pIC50: −log10 of the molar value.

Legend:
PRMT5-MEP50 = PRMT5-MEP50 (Homo sapiens, UniProt O14744); assay: PRMT5 assay (3H-SAM flashplate); conditions: PRMT5 biochemical assay
Description: Assays were performed in a 25 μl-volume in 384-well V-bottom polypropylene microplates (Greiner Bio-One, cat. No. 781280) at ambient temperature. Optimized 1× assay buffer was 20 mM Tris-HCl pH 8.0, 1 mM DTT, […]. For compound screening PRMT5-MEP50 (final concentration, f.c.=2.5 nM) was added using a Multidrop Combi (ThermoFisher Scientific, Waltham, MA) and preincubated for 5 min. Reactions were started by adding 3′ biotinylated histone H4 peptide acetylated on serine 1 (Ac-[…]-Biotin) (f.c.=100 nM) and 3H-SAM (f.c.=250 nM) substrates. Reactions proceeded for 60 minutes and were quenched with excess non-radioactive SAM (f.c.=15 μM). The reactions were then transferred to streptavidin-coated flashplates and incubated for 2 hours at 25° C. Following two washing cycles with 0.1% Tween-20, the plates were sealed and read on a TopCount (PerkinElmer, Waltham, MA) plate-based scintillation counter. For determination of kinetic parameters, reaction times were optimized so that measurements were taken during the initial velocity phase of the reaction.

METTL3/METTL14 = METTL3/METTL14 (Homo sapiens, UniProt Q86U44); assay: METTL3-14 standard enzyme assay (3H-SAM flashplate); conditions: METTL3 biochemical assay
Description: METTL3-14 Standard Enzyme Assay
Assays were performed in a 25 μl-volume in 384-well V-bottom polypropylene microplates (Greiner Bio-One, cat. No. 781280) at ambient temperature. Optimized 1× assay buffer was 20 mM HEPES pH 7.5, 50 mM KCl, 250 μM MgCl2, 1 mM DTT, 0.01% Tween, 0.01% BSG, 0.004 U/μl RNAseOUT (cat. No. 10777019, ThermoFisher Scientific, Waltham, MA). For compound screening METTL3/METTL14 (final concentration, f.c.=2.5 nM) was added using a Multidrop Combi (ThermoFisher Scientific, Waltham, MA) and preincubated for 5 min. Reactions were started by adding 3′ biotinylated RNA (UCUGGACUAAA-biotin) (f.c.=100 nM) and 3H-SAM (f.c.=100 nM) substrates. Reactions proceeded for 30 minutes and were quenched with excess non-radioactive SAM (f.c.=15 μM). The reactions were then transferred to streptavidin-coated flashplates and incubated for 2 hours at 25° C. Following two washing cycles with 0.1% Tween-20, the plates were sealed and read on a TopCount (PerkinElmer, Waltham, MA) plate-based scintillation counter. For determination of kinetic parameters, reaction times were optimized so that measurements were taken during the initial velocity phase of the reaction.

Sequence of PRMT5-MEP50 (O14744 whole entry): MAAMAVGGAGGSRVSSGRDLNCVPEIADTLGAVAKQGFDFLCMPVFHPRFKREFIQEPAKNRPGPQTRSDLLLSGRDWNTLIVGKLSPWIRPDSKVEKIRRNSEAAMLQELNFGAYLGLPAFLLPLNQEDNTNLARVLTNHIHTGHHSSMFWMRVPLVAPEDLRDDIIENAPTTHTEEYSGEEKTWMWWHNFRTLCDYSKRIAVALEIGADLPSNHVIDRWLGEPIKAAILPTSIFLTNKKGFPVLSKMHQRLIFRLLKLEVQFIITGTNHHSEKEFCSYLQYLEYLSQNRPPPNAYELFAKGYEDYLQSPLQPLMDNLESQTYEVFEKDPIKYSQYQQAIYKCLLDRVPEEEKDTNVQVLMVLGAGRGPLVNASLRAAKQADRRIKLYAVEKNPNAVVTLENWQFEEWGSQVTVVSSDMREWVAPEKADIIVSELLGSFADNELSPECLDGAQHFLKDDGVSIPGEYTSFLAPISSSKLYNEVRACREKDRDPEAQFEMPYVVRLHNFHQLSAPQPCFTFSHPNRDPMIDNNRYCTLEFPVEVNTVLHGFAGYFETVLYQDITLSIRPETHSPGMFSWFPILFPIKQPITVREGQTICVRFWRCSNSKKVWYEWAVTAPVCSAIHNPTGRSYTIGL
Sequence of PRMT5-MEP50 (Q9BQA1 whole entry partner): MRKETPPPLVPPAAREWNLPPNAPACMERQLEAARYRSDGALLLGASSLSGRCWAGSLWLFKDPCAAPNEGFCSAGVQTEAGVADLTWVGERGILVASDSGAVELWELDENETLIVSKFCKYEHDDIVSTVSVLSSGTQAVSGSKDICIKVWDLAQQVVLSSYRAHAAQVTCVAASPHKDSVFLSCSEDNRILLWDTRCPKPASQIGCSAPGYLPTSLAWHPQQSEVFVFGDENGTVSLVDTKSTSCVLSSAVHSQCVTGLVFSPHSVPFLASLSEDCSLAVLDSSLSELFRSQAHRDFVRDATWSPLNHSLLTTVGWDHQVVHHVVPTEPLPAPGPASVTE
Sequence of METTL3/METTL14 (Q86U44 whole entry, species assumed): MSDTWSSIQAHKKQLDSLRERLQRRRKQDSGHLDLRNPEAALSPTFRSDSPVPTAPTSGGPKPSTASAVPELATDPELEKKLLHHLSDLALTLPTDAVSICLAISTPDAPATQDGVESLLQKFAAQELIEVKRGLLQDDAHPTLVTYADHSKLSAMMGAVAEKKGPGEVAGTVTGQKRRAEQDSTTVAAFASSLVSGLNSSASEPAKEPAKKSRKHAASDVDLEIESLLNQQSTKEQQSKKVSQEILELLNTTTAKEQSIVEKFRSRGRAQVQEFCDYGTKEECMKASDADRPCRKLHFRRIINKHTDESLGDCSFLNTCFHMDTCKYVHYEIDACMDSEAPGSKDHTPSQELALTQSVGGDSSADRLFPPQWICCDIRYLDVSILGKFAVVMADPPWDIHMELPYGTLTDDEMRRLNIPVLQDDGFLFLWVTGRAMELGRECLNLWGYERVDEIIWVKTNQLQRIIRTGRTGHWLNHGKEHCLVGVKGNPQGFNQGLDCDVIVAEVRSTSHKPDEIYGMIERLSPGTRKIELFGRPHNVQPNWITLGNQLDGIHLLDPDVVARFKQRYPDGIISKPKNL
Sequence of METTL3/METTL14 (Q9HCE5 whole entry partner, species assumed): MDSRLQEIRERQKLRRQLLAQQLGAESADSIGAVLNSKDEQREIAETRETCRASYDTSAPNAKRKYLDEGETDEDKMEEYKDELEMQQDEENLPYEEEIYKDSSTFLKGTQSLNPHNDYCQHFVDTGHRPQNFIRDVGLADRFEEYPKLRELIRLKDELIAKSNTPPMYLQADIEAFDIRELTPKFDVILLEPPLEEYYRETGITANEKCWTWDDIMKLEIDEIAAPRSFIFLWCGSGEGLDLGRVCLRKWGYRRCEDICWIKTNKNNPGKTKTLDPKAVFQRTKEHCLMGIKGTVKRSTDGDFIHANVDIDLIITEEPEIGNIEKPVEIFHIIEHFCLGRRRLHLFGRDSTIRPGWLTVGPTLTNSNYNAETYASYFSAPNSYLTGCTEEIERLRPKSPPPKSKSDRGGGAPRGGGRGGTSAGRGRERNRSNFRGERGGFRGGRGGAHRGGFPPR

Molecule | pIC50 (METTL3/METTL14; Table 4) | other results
C[C@H]1C[C@@H](NC(=O)[C@H]2O[C@@H](n3cc(-c4ccn(C)n4)c4c(N)ncnc43)[C@H](O)[C@@H]2O)CCN1C [Compound I-232] | 6.00 to 7.00 | pIC50 (PRMT5-MEP50; Table 4): 6.00 to 7.00
CN1CCC(N(CCCc2cnoc2)C(=O)[C@H]2O[C@@H](n3cc(-c4ccn(C)n4)c4c(N)ncnc43)[C@H](O)[C@@H]2O)CC1 [Compound I-152] | 6.00 to 7.00 | pIC50 (PRMT5-MEP50; Table 4): 6.00 to 7.00
Cn1ccc(-c2cn([C@@H]3O[C@H](C(=O)NC4CCN5CCCC5C4)[C@@H](O)[C@H]3O)c3ncnc(N)c23)n1 (some centres unmarked) [Compound I-206] | 6.00 to 7.00 | pIC50 (PRMT5-MEP50; Table 4): 6.00 to 7.00
CN1CCC(N(CCCC#N)C(=O)[C@H]2O[C@@H](n3cc(-c4ccn(C)n4)c4c(N)ncnc43)[C@H](O)[C@@H]2O)CC1 [Compound I-155] | 6.00 to 7.00 | pIC50 (PRMT5-MEP50; Table 4): 7.00 to 8.00
(2S,3S,4R,5R)-5-[4-amino-5-(1-methyl-1H-pyrazol-3-yl)-7H-pyrrolo[2,3-d]pyrimidin-7-yl]-3,4-dihydroxy-N-{3-[(methylcarbamoyl)amino]propyl}-N-(1-methylpiperidin-4-yl)oxolane-2-carboxamide [Compound I-50] | ≤ 6.00 | pIC50 (PRMT5-MEP50; Table 4): 6.00 to 7.00
Cn1ccc(-c2cn([C@@H]3O[C@H](C(=O)N[C@H]4C[C@H](O)C4)[C@@H](O)[C@H]3O)c3ncnc(N)c23)n1 [Compound I-215] | ≤ 6.00 | pIC50 (PRMT5-MEP50; Table 4): ≤ 6.00
CCNc1ccnc(NC(=O)[C@H]2O[C@@H](n3cc(-n4cccn4)c4c(N)ncnc43)C[C@@H]2O)c1 [Compound I-29] | – | pIC50 (PRMT5-MEP50; Table 3): ≤ 6.00; pIC50 (METTL3/METTL14; Table 3): 6.00 to 7.00
Cn1ccc(-c2cn([C@@H]3O[C@H](C(=O)NC4CCNCC4)[C@@H](O)[C@H]3O)c3ncnc(N)c23)n1 [Compound I-1, (2S,3S,4R,5R)-5-[4-amino-5-(1-methyl-1H-pyrazol-3-yl)-7H-pyrrolo[2,3-d]pyrimidin-7-yl]-3,4-dihydroxy-N-(piperidin-4-yl)oxolane-2-carboxamide] | – | pIC50 (PRMT5-MEP50; Table 3): ≤ 6.00; pIC50 (METTL3/METTL14; Table 3): ≤ 6.00
CN1CCC(NC(=O)[C@H]2C[C@@H](n3cc(-c4ccn(C)n4)c4c(N)ncnc43)C[C@@H]2O)CC1 [Compound I-55, (1S,2S,4R)-4-(4-amino-5-(1-methyl-1H-pyrazol-3-yl)-7H-pyrrolo[2,3-d]pyrimidin-7-yl)-2-hydroxy-N-(1-methylpiperidin-4-yl)cyclopentane-1-carboxamide] | ≤ 6.00 | pIC50 (PRMT5-MEP50; Table 4): ≤ 6.00
Cn1ccc(-c2cn([C@@H]3O[C@H](C(=O)NCc4ccc5ccccc5c4)[C@@H](O)[C@H]3O)c3ncnc(N)c23)n1 [Compound I-131] | 6.00 to 7.00 | –
CN(C)S(=O)(=O)c1cccc(NC(=O)[C@H]2O[C@@H](n3cc(-c4ccn(C)n4)c4c(N)ncnc43)[C@H](O)[C@@H]2O)c1 [Compound I-90] | ≤ 6.00 | –
CC(CCc1ccccc1)NC(=O)[C@H]1O[C@@H](n2cc(-c3ccn(C)n3)c3c(N)ncnc32)[C@H](O)[C@@H]1O (some centres unmarked) [Compound I-137] | 6.00 to 7.00 | –
Cc1ccc(Cl)c(NC(=O)[C@H]2O[C@@H](n3cc(-c4ccn(C)n4)c4c(N)ncnc43)[C@H](O)[C@@H]2O)c1 [Compound I-72] | ≤ 6.00 | –
Cn1ccc(-c2cn([C@@H]3O[C@H](C(=O)NCC4CCOC4)[C@@H](O)[C@H]3O)c3ncnc(N)c23)n1 (some centres unmarked) [Compound I-89] | ≤ 6.00 | –
CC(C)c1nnc(NC(=O)[C@H]2O[C@@H](n3cc(-c4ccn(C)n4)c4c(N)ncnc43)[C@H](O)[C@@H]2O)s1 [Compound I-70] | ≤ 6.00 | –
Cc1nc2cc(NC(=O)[C@H]3O[C@@H](n4cc(-c5ccn(C)n5)c5c(N)ncnc54)[C@H](O)[C@@H]3O)ccc2o1 [Compound I-141] | 7.00 to 8.00 | –
Cn1ccc(-c2cn([C@@H]3O[C@H](C(=O)Nc4ccc(C(=O)N5CCCCC5)cc4)[C@@H](O)[C@H]3O)c3ncnc(N)c23)n1 [Compound I-135] | 6.00 to 7.00 | –
Cn1ccc(-c2cn([C@@H]3O[C@H](C(=O)Nc4ccc(Br)c(Cl)c4)[C@@H](O)[C@H]3O)c3ncnc(N)c23)n1 [Compound I-63] | ≤ 6.00 | –
Cn1ccc(-c2cn([C@@H]3O[C@H](C(=O)Nc4cccc(C#N)c4)[C@@H](O)[C@H]3O)c3ncnc(N)c23)n1 [Compound I-105] | 6.00 to 7.00 | –
Cn1ccc(-c2cn([C@@H]3O[C@H](C(=O)NC4CCC(O)CC4)[C@@H](O)[C@H]3O)c3ncnc(N)c23)n1 (some centres unmarked) [Compound I-103] | 6.00 to 7.00 | –
Cn1ccc(-c2cn([C@@H]3O[C@H](C(=O)Nc4ccc(-c5ccccc5)cc4)[C@@H](O)[C@H]3O)c3ncnc(N)c23)n1 [Compound I-98] | 6.00 to 7.00 | –

Molecule | pIC50 (METTL3/METTL14; Table 4) | other results
Cc1ccc2nc(NC(=O)[C@H]3O[C@@H](n4cc(-c5ccn(C)n5)c5c(N)ncnc54)[C@H](O)[C@@H]3O)sc2c1 [Compound I-68] | ≤ 6.00 | –
Cc1cc(CNC(=O)[C@H]2O[C@@H](n3cc(-c4ccn(C)n4)c4c(N)ncnc43)[C@H](O)[C@@H]2O)no1 [Compound I-106] | 6.00 to 7.00 | –
Cn1ccc(-c2cn([C@@H]3O[C@H](C(=O)Nc4ccc5ccccc5n4)[C@@H](O)[C@H]3O)c3ncnc(N)c23)n1 [Compound I-66] | ≤ 6.00 | –
Cn1ccc(-c2cn([C@@H]3O[C@H](C(=O)Nc4ccncc4Cl)[C@@H](O)[C@H]3O)c3ncnc(N)c23)n1 [Compound I-122] | 6.00 to 7.00 | –
Cc1cc(NC(=O)[C@H]2O[C@@H](n3cc(-c4ccn(C)n4)c4c(N)ncnc43)[C@H](O)[C@@H]2O)n(C)n1 [Compound I-86] | ≤ 6.00 | –
Cn1ccc(-c2cn([C@@H]3O[C@H](C(=O)NC4Cc5ccccc5C4)[C@@H](O)[C@H]3O)c3ncnc(N)c23)n1 [Compound I-126] | 6.00 to 7.00 | –
Cn1ccc(-c2cn([C@@H]3O[C@H](C(=O)NCCN4CCOCC4)[C@@H](O)[C@H]3O)c3ncnc(N)c23)n1 [Compound I-65] | ≤ 6.00 | –
Cn1ccc(-c2cn([C@@H]3O[C@H](C(=O)Nc4ccc(-n5cnnn5)cc4)[C@@H](O)[C@H]3O)c3ncnc(N)c23)n1 [Compound I-138] | 6.00 to 7.00 | –
Cn1ccc(-c2cn([C@@H]3O[C@H](C(=O)NC4CCN(S(C)(=O)=O)CC4)[C@@H](O)[C@H]3O)c3ncnc(N)c23)n1 [Compound I-95] | 6.00 to 7.00 | –
Cc1nsc(NC(=O)[C@H]2O[C@@H](n3cc(-c4ccn(C)n4)c4c(N)ncnc43)[C@H](O)[C@@H]2O)n1 [Compound I-83] | ≤ 6.00 | –
Cn1ccc(-c2cn([C@@H]3O[C@H](C(=O)NCCc4ccncc4)[C@@H](O)[C@H]3O)c3ncnc(N)c23)n1 [Compound I-112] | 6.00 to 7.00 | –
CC(=O)Nc1ccccc1NC(=O)[C@H]1O[C@@H](n2cc(-c3ccn(C)n3)c3c(N)ncnc32)[C@H](O)[C@@H]1O [Compound I-130] | 6.00 to 7.00 | –
Cn1ccc(-c2cn([C@@H]3O[C@H](C(=O)NCCN4CCNC4=O)[C@@H](O)[C@H]3O)c3ncnc(N)c23)n1 [Compound I-64] | ≤ 6.00 | –
Cc1ccc(NC(=O)[C@H]2O[C@@H](n3cc(-c4ccn(C)n4)c4c(N)ncnc43)[C@H](O)[C@@H]2O)cc1Cl [Compound I-71] | ≤ 6.00 | –
Cn1ccc(-c2cn([C@@H]3O[C@H](C(=O)Nc4ccc(CN5CCS(=O)(=O)CC5)cc4)[C@@H](O)[C@H]3O)c3ncnc(N)c23)n1 [Compound I-125] | 6.00 to 7.00 | –
Cn1ccc(-c2cn([C@@H]3O[C@H](C(=O)NCCc4ccccc4Cl)[C@@H](O)[C@H]3O)c3ncnc(N)c23)n1 [Compound I-133] | 6.00 to 7.00 | –
CCCCc1ccc(NC(=O)[C@H]2O[C@@H](n3cc(-c4ccn(C)n4)c4c(N)ncnc43)[C@H](O)[C@@H]2O)cc1 [Compound I-110] | 6.00 to 7.00 | –
Cn1ccc(-c2cn([C@@H]3O[C@H](C(=O)NC(Cc4ccccc4)c4ccccc4)[C@@H](O)[C@H]3O)c3ncnc(N)c23)n1 (some centres unmarked) [Compound I-115] | 6.00 to 7.00 | –
Cn1ccc(-c2cn([C@@H]3O[C@H](C(=O)NCc4ccccc4-n4cccn4)[C@@H](O)[C@H]3O)c3ncnc(N)c23)n1 [Compound I-121] | 6.00 to 7.00 | –
Cn1ccc(-c2cn([C@@H]3O[C@H](C(=O)NCCCn4ccnc4)[C@@H](O)[C@H]3O)c3ncnc(N)c23)n1 [Compound I-102] | 6.00 to 7.00 | –
